Measured values reported in US20200129922A1, “METHOD OF REDUCING CONCENTRATION OF FLUORINE-CONTAINING COMPOUND IN SAMPLE” (Samsung Electronics Co., Ltd., priority 2018, published 2020).

Legend:
[1] = at 30° C.; cited from earlier work
[2] = Confirmation of solubility of CF4 for phosphonium ionic liquid (headspace CF4 by GC-MS); format: physicochemical; conditions: 5 ml ionic liquid in 60 ml serum bottle, 200 ppm CF4 in upper empty space, 24 hours shaking; control distilled water
Procedure: 5 ml of a phosphonium ionic liquid was put in a 60 ml glass serum bottle, and CF4 was supplied to the upper empty space at a concentration of 200 ppm based on the volume of the empty space. After air-tightening by closing a lid, the bottle was incubated for 24 hours under shaking. Then, the air in the upper empty space was collected, and a concentration of CF4 was measured using gas chromatography mass-spectrum (GC-MS). Distilled water of the same volume was used as a control group.
The CF4 removal rates in Tables 1 and 2 were calculated from the following Mathematical Equation 1:
CF4 removal rate=[(initial CF4 content−CF4 content after reaction)/initial CF4 content]×100 <Mathematical Equation 1>

## FC(F)(F)F [CF4]
[1]
  solubility of CF4 in water: 17.1 µg/mL

## triethyl octyl phosphonium bis(trifluoromethylsulfonyl)imide [[P2228]^+ [NTf2]^−]
[2]
  CF4 reduction rate (%): 13.9%

## trihexyl tetradecyl phosphonium bis(trifluoromethylsulfonyl)imide [[P66614]^+ [NTf2]^−]
[2]
  CF4 reduction rate (%): 10.9%
